Test results: patent US12157741B2, “Macrocyclic inhibitors of DYRK1A” (DANA-FARBER CANCER INSTITUTE, INC., priority 2018, dated 2024)
Where two headings read alike, the source gives them in different places.

What was measured:
Assay type in all cases: binding
various enzymes [1] = target: various enzymes (Homo sapiens, UniProt P37173); settings: compound 1 uM
Protocol: (§1) Ambit profiling was conducted in accordance with the manufacturer's instructions.

various enzymes [2] = target: various enzymes (Homo sapiens, UniProt Q02763); settings: compound 1 uM
Sequence of various enzymes (Homo sapiens, UniProt Q02763) (Q02763 23-1124): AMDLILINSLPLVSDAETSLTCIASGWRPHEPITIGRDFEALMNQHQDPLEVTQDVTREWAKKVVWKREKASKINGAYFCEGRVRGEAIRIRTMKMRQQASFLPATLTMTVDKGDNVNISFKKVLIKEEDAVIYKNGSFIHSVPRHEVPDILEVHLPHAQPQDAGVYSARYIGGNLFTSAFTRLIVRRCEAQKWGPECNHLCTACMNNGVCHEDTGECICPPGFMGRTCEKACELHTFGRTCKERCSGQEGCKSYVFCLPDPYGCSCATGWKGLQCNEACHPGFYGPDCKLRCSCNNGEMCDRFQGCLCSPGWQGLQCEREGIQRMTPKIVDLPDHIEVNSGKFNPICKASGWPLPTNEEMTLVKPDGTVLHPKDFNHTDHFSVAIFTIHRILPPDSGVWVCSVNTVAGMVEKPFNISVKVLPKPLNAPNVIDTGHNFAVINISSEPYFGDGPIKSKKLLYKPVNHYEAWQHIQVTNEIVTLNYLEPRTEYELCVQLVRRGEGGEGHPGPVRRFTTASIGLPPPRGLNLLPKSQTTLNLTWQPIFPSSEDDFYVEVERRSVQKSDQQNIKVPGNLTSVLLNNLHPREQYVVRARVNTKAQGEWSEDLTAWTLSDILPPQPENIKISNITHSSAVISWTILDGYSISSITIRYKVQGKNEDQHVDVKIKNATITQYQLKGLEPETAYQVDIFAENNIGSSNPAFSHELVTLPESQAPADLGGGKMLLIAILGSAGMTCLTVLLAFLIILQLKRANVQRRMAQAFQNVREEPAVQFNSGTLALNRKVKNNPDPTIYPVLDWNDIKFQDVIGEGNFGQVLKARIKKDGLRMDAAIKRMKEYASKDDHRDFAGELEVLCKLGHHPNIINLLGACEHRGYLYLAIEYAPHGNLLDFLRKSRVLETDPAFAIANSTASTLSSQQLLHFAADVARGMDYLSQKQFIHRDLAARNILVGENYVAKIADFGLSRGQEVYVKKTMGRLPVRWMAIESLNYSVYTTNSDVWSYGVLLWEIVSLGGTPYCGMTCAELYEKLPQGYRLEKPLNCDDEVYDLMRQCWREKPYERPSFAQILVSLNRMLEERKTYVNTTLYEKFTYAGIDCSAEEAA
Protocol: as §1

various enzymes [3] = target: various enzymes (Homo sapiens, UniProt P49759); settings: compound 1 uM
Protocol: as §1

various enzymes [4] = target: various enzymes (Homo sapiens, UniProt P16591); settings: compound 1 uM
Sequence of various enzymes (Homo sapiens, UniProt P16591) (P16591 whole entry): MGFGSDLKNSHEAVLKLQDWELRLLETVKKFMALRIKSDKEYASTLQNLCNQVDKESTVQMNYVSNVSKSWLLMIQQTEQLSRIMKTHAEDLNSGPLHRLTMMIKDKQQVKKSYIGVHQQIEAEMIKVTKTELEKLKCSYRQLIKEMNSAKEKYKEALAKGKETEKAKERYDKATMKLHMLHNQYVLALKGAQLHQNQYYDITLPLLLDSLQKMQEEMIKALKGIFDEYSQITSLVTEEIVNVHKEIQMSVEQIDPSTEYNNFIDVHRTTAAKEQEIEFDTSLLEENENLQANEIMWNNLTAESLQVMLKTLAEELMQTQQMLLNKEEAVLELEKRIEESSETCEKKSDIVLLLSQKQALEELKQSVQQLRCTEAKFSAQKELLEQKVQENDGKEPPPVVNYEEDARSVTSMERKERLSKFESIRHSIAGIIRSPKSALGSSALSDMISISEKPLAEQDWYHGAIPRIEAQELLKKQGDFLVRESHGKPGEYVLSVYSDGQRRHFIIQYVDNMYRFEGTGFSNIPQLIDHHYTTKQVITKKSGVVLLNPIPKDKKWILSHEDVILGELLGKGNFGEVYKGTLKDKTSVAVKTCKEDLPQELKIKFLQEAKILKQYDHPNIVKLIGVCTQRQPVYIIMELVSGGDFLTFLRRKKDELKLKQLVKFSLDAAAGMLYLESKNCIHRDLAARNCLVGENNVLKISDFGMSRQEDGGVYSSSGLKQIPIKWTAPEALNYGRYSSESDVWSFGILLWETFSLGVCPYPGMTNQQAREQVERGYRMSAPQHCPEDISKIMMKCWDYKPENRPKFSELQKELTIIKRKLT
Protocol: as §1

various enzymes [5] = target: various enzymes (Homo sapiens, UniProt P51817); settings: compound 1 uM
Protocol: as §1

various enzymes [6] = target: various enzymes (Homo sapiens, UniProt Q6ZN16); settings: compound 1 uM
Protocol: as §1

various enzymes [7] = target: various enzymes (Homo sapiens, UniProt P00533, L858R)
Protocol: as §1

various enzymes [8] = target: various enzymes (Homo sapiens, UniProt Q9HBH9); settings: compound 1 uM
Sequence of various enzymes (Homo sapiens, UniProt Q9HBH9) (Q9HBH9 whole entry): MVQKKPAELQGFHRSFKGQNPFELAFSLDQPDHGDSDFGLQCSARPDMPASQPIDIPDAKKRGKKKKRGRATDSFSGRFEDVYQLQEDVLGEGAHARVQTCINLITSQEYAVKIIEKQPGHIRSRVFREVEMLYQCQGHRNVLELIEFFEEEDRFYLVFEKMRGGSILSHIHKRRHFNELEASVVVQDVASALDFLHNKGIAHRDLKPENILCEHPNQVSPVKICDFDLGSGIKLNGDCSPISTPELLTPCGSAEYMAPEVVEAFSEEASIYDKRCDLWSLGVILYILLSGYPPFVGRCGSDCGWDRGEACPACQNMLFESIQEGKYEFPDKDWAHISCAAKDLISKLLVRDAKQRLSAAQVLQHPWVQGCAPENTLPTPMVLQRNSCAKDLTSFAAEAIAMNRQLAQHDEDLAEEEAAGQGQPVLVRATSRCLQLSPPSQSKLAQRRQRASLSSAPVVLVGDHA
Protocol: as §1

various enzymes [9] = target: various enzymes (Homo sapiens, UniProt P11309); settings: compound 1 uM
Protocol: as §1

various enzymes [10] = target: T1, various enzymes (Homo sapiens, UniProt Q13873); settings: compound 1 uM
T1 sequence (Q13873 27-1038): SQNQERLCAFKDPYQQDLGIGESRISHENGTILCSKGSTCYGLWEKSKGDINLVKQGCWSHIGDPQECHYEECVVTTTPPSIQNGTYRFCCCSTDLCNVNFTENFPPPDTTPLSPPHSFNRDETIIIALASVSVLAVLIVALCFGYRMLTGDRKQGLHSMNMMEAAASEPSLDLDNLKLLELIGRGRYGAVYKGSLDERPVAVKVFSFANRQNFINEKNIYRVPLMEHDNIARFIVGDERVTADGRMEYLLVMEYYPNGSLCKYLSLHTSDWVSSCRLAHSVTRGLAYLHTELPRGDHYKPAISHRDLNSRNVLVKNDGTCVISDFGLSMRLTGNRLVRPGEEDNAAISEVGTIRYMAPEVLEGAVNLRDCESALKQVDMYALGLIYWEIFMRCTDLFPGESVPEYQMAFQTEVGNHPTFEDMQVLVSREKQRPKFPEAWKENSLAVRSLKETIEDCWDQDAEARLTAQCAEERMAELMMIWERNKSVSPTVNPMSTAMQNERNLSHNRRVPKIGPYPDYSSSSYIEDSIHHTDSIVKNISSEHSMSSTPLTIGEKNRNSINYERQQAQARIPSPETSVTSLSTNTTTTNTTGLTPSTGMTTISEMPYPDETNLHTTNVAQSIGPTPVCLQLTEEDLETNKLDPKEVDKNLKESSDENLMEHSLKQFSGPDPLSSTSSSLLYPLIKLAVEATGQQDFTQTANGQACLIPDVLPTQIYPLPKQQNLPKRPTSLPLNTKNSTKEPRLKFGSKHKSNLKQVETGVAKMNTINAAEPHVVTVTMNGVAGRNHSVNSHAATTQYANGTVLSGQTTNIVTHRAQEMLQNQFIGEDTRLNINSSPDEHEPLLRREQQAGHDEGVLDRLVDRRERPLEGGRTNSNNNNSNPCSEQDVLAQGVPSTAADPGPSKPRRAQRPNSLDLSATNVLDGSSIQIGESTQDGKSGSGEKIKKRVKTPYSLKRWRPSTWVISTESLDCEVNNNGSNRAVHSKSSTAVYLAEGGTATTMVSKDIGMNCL
Protocol: as §1

various enzymes [11] = target: various enzymes (Homo sapiens, UniProt Q02750); settings: compound 1 uM
Protocol: as §1

various enzymes [12] = target: various enzymes (Homo sapiens, UniProt Q9Y2H9); settings: compound 1 uM
Protocol: as §1

various enzymes [13] = target: various enzymes (Homo sapiens, UniProt P80192); settings: compound 1 uM
Protocol: as §1

various enzymes [14] = target: various enzymes (Homo sapiens, UniProt Q9UKI8); settings: compound 1 uM
Protocol: as §1

various enzymes [15] = target: various enzymes (Homo sapiens, UniProt Q52WX2); settings: compound 1 uM
Protocol: as §1

various enzymes [16] = target: various enzymes (Homo sapiens, UniProt P43405); settings: compound 1 uM
Protocol: as §1

various enzymes [17] = target: various enzymes (Homo sapiens, UniProt Q9P2K8, S808G)
Sequence of various enzymes (Homo sapiens, UniProt Q9P2K8, S808G) (Q9P2K8 whole entry S808G): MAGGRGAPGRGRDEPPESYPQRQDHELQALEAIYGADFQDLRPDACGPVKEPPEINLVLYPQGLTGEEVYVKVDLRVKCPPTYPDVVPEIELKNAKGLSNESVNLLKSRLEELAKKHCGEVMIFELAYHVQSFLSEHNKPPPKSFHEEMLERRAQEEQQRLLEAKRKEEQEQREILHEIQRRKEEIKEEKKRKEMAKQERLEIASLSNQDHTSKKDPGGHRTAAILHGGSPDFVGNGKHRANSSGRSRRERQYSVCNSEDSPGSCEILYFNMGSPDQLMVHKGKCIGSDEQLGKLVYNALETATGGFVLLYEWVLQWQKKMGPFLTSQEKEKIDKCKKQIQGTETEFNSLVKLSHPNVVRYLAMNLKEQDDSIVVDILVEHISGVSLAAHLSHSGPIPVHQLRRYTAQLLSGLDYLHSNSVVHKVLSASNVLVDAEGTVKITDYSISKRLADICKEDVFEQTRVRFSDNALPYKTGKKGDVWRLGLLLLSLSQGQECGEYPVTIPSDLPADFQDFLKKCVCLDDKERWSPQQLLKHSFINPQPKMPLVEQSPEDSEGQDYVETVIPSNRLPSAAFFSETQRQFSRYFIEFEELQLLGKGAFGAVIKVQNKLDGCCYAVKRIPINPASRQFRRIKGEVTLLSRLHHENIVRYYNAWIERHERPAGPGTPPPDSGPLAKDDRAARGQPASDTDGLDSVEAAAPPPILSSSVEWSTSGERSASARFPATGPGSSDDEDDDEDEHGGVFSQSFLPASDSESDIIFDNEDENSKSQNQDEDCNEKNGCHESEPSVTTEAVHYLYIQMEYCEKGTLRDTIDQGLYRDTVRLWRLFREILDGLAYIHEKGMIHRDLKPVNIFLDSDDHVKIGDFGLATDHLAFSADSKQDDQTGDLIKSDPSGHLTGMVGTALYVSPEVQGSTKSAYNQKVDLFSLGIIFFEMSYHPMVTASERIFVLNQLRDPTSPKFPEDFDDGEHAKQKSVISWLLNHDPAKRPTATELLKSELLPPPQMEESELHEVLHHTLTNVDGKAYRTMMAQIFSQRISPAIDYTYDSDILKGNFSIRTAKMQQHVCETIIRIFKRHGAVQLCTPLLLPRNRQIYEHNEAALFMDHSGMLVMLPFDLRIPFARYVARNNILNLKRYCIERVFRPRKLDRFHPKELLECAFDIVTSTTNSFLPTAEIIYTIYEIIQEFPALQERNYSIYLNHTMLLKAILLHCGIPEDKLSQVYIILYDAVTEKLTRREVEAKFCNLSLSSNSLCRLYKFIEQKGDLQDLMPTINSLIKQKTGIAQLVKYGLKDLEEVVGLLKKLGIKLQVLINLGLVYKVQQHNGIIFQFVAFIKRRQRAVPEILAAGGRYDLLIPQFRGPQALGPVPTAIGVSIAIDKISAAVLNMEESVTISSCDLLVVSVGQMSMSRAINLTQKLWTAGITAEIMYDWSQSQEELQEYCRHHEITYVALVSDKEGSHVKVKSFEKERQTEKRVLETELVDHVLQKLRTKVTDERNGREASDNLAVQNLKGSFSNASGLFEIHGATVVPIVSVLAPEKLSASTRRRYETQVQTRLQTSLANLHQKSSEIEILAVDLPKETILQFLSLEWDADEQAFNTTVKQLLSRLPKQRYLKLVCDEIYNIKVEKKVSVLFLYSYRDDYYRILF
Protocol: as §1

various enzymes [18] = target: various enzymes (Homo sapiens, UniProt P42336, C420R)
Protocol: as §1

various enzymes [19] = target: various enzymes (Homo sapiens, UniProt Q9BZL6); settings: compound 1 uM
Protocol: as §1

various enzymes [20] = target: various enzymes (Homo sapiens, UniProt Q15835); settings: compound 1 uM
Protocol: as §1

various enzymes [21] = target: various enzymes (Homo sapiens, UniProt P54760); settings: compound 1 uM
Protocol: as §1

various enzymes [22] = target: various enzymes (Homo sapiens, UniProt Q6DT37); settings: compound 1 uM
Protocol: as §1

various enzymes [23] = target: various enzymes (Homo sapiens, UniProt Q6ZWH5); settings: compound 1 uM
Protocol: as §1

various enzymes [24] = target: various enzymes (Homo sapiens, UniProt P07949, V804M)
Sequence of various enzymes (Homo sapiens, UniProt P07949, V804M) (P07949 29-1114 V804M): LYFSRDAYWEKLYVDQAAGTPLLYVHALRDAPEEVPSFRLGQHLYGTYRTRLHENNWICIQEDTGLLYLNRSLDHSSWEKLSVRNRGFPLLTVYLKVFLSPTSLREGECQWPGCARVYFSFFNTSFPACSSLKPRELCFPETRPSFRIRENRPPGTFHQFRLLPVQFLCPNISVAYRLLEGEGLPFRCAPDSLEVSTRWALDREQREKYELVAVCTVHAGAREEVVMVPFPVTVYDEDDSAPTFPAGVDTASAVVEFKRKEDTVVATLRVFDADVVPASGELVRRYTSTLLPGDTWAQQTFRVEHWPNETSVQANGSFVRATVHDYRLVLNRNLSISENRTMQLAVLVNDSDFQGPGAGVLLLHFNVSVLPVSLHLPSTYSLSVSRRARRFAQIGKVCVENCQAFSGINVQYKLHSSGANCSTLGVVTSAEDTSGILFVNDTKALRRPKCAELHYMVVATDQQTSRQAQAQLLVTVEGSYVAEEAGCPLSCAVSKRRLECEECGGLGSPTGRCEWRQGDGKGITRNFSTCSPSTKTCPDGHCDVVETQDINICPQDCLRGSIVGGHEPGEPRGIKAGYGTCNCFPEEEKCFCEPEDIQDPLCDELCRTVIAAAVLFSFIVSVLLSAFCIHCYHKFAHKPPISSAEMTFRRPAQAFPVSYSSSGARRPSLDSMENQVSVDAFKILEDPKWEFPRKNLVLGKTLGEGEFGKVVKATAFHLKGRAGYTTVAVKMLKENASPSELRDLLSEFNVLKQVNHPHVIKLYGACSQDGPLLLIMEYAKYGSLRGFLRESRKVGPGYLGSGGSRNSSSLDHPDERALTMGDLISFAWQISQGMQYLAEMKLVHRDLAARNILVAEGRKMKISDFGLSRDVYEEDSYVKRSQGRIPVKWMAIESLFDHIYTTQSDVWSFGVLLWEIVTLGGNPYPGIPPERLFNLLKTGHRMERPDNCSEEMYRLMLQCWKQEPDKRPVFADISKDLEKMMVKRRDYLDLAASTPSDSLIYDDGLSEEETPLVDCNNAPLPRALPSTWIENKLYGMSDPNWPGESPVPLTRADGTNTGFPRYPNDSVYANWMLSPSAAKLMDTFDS
Protocol: as §1

various enzymes [25] = target: various enzymes (Homo sapiens, UniProt O75460); settings: compound 1 uM
Protocol: as §1

various enzymes [26] = target: various enzymes (Homo sapiens, UniProt P00533, L861Q)
Protocol: as §1

various enzymes [27] = target: various enzymes (Homo sapiens, UniProt Q9P286); settings: compound 1 uM
Protocol: as §1

various enzymes [28] = target: various enzymes (Homo sapiens, UniProt P45983); settings: compound 1 uM
Protocol: as §1

various enzymes [29] = target: various enzymes (Homo sapiens, UniProt P21802); settings: compound 1 uM
Protocol: as §1

various enzymes [30] = target: various enzymes (Homo sapiens, UniProt P57058); settings: compound 1 uM
Protocol: as §1

| Structure (SMILES) | Ambit profiling: TGFBR2 (various enzymes [1]) | Ambit profiling: TIE2 (various enzymes [2]) | Ambit profiling: CLK1 (various enzymes [3]) | Ambit profiling: FER (various enzymes [4]) | Ambit profiling: PRKX (various enzymes [5]) | Ambit profiling: MAP3K15 (various enzymes [6]) | Ambit profiling: MKNK2 (various enzymes [8]) | Ambit profiling: PIM1 (various enzymes [9]) | Ambit profiling: BMPR2 (various enzymes [10]) | Ambit profiling: MEK1 (various enzymes [11]) | Ambit profiling: MAST1 (various enzymes [12]) | Ambit profiling: MLK1 (various enzymes [13]) | Ambit profiling: TLK1 (various enzymes [14]) | Ambit profiling: SBK1 (various enzymes [15]) | Ambit profiling: SYK (various enzymes [16]) | Ambit profiling: PRKD2 (various enzymes [19]) | Ambit profiling: GRK1 (various enzymes [20]) | Ambit profiling: EPHB4 (various enzymes [21]) | Ambit profiling: DMPK2 (various enzymes [22]) | Ambit profiling: NEK10 (various enzymes [23]) | further results |
| --- | --- | --- | --- | --- | --- | --- | --- | --- | --- | --- | --- | --- | --- | --- | --- | --- | --- | --- | --- | --- | --- |
| CC(C)N1Cc2nn(C)cc2-c2cnc3[nH]cc(c3c2)-c2cn(nc2C(F)(F)F)CCCC1=O [Compound 45, (Z)-5-isopropyl-31-methyl-13-(trifluoromethyl)-11H,21H,31H-5-aza-2(3,5)-pyrrolo[2,3-b]pyridina-1(4,1),3(4,3)-dipyrazolacyclononaphan-6-one] | 91 | 6.7 | 9.9 | 49 | 100 | 84 | 100 | 75 | 78 | 17 | 22 | 46 | 55 | 100 | 35 | 43 | 17 | 76 | 53 | 97 | Ambit profiling: EGFR(L858R) (various enzymes [7]; compound 1 uM): 25; Ambit profiling: GCN2(Kin.Dom.2, S808G) (various enzymes [17]; compound 1 uM): 100; Ambit profiling: PIK3CA(C420R) (various enzymes [18]; compound 1 uM): 100; Ambit profiling: RET(V804M) (various enzymes [24]; compound 1 uM): 8.2; Ambit profiling: ERN1 (various enzymes [25]): 90; Ambit profiling: EGFR(L861Q) (various enzymes [26]; compound 1 uM): 28; Ambit profiling: PAK7 (various enzymes [27]): 51; Ambit profiling: JNK1 (various enzymes [28]): 18; Ambit profiling: FGFR2 (various enzymes [29]): 9.5; Ambit profiling: HUNK (various enzymes [30]): 16 |
| COc1c2c(nn1C)CN(C(C)C)C(=O)CCCn1cc(c(C(F)(F)F)n1)-c1c[nH]c3ncc-2cc13 [Compound 50, (Z)-5-isopropyl-35-methoxy-31-methyl-13-(trifluoromethyl)-11H,21H,31H-5-aza-2(3,5)-pyrrolo[2,3-b]pyridina-1(4,1),3(4,3)-dipyrazolacyclononaphan-6-one] | 20 | 2.7 | 18 | 10 | 100 | 76 | 53 | 77 | 89 | 12 | 40 | 28 | 58 | 98 | 26 | 55 | 44 | 40 | 47 | 87 | Ambit profiling: EGFR(L858R) (various enzymes [7]): 18; Ambit profiling: GCN2(Kin.Dom.2, S808G) (various enzymes [17]): 100; Ambit profiling: PIK3CA(C420R) (various enzymes [18]): 91; Ambit profiling: RET(V804M) (various enzymes [24]): 6; Ambit profiling: ERN1 (various enzymes [25]): 71; Ambit profiling: EGFR(L861Q) (various enzymes [26]): 17; Ambit profiling: PAK7 (various enzymes [27]): 100; Ambit profiling: JNK1 (various enzymes [28]): 4.1; Ambit profiling: FGFR2 (various enzymes [29]): 11; Ambit profiling: HUNK (various enzymes [30]): 8 |
